# Test results as given in BigSolDB 2.1.
smiles,measurement,setting,value
CC(=O)Oc1ccc(C(c2ccc(OC(C)=O)cc2)c2ccccn2)cc1,solubility (mole fraction),"in DMAc, 288.15 K",0.0391
same,solubility (mole fraction),"in DMAc, 293.15 K",0.0448
same,solubility (mole fraction),"in DMAc, 298.15 K",0.0512
same,solubility (mole fraction),"in DMAc, 303.15 K",0.0583
same,solubility (mole fraction),"in DMAc, 308.15 K",0.0659
same,solubility (mole fraction),"in DMF, 288.15 K",0.0372
same,solubility (mole fraction),"in DMF, 293.15 K",0.0429
same,solubility (mole fraction),"in DMF, 298.15 K",0.0492
same,solubility (mole fraction),"in DMF, 303.15 K",0.0561
same,solubility (mole fraction),"in DMF, 308.15 K",0.0638
same,solubility (mole fraction),"in NMP, 288.15 K",0.0643
same,solubility (mole fraction),"in NMP, 293.15 K",0.0703
same,solubility (mole fraction),"in NMP, 298.15 K",0.0768
same,solubility (mole fraction),"in NMP, 303.15 K",0.0837
same,solubility (mole fraction),"in NMP, 308.15 K",0.0909
same,solubility (mole fraction),"in PEG-400, 288.15 K",0.0132
same,solubility (mole fraction),"in PEG-400, 293.15 K",0.0154
same,solubility (mole fraction),"in PEG-400, 298.15 K",0.0179
same,solubility (mole fraction),"in PEG-400, 303.15 K",0.0206
same,solubility (mole fraction),"in PEG-400, 308.15 K",0.0237
same,solubility (mole fraction),"in THF, 288.15 K",0.0192
same,solubility (mole fraction),"in THF, 293.15 K",0.0237
same,solubility (mole fraction),"in THF, 298.15 K",0.0291
same,solubility (mole fraction),"in THF, 303.15 K",0.0355
same,solubility (mole fraction),"in THF, 308.15 K",0.0431
same,solubility (mole fraction),"in acetone, 288.15 K",0.0124
same,solubility (mole fraction),"in acetone, 293.15 K",0.0154
same,solubility (mole fraction),"in acetone, 298.15 K",0.0189
same,solubility (mole fraction),"in acetone, 303.15 K",0.0231
same,solubility (mole fraction),"in acetone, 308.15 K",0.0281
same,solubility (mole fraction),"in acetonitrile, 288.15 K",0.0112
same,solubility (mole fraction),"in acetonitrile, 293.15 K",0.0135
same,solubility (mole fraction),"in acetonitrile, 298.15 K",0.0162
same,solubility (mole fraction),"in acetonitrile, 303.15 K",0.0193
same,solubility (mole fraction),"in acetonitrile, 308.15 K",0.0229
same,solubility (mole fraction),"in ethanol, 288.15 K",0.000471
same,solubility (mole fraction),"in ethanol, 293.15 K",0.000639
same,solubility (mole fraction),"in ethanol, 298.15 K",0.000852
same,solubility (mole fraction),"in ethanol, 303.15 K",0.00113
same,solubility (mole fraction),"in ethanol, 308.15 K",0.00149
same,solubility (mole fraction),"in isopropanol, 288.15 K",0.000238
same,solubility (mole fraction),"in isopropanol, 293.15 K",0.000327
same,solubility (mole fraction),"in isopropanol, 298.15 K",0.000443
same,solubility (mole fraction),"in isopropanol, 303.15 K",0.000599
same,solubility (mole fraction),"in isopropanol, 308.15 K",0.000804
same,solubility (mole fraction),"in methanol, 288.15 K",0.000961
same,solubility (mole fraction),"in methanol, 293.15 K",0.00123
same,solubility (mole fraction),"in methanol, 298.15 K",0.00155
same,solubility (mole fraction),"in methanol, 303.15 K",0.00196
same,solubility (mole fraction),"in methanol, 308.15 K",0.00245
same,solubility (mole fraction),"in n-butanol, 288.15 K",0.000393
same,solubility (mole fraction),"in n-butanol, 293.15 K",0.000537
same,solubility (mole fraction),"in n-butanol, 298.15 K",0.000719
same,solubility (mole fraction),"in n-butanol, 303.15 K",0.000968
same,solubility (mole fraction),"in n-butanol, 308.15 K",0.00128
same,solubility (mole fraction),"in n-propanol, 288.15 K",0.000462
same,solubility (mole fraction),"in n-propanol, 293.15 K",0.000608
same,solubility (mole fraction),"in n-propanol, 298.15 K",0.000788
same,solubility (mole fraction),"in n-propanol, 303.15 K",0.00102
same,solubility (mole fraction),"in n-propanol, 308.15 K",0.00131
same,solubility (mole fraction),"in transcutol, 288.15 K",0.00761
same,solubility (mole fraction),"in transcutol, 293.15 K",0.0092
same,solubility (mole fraction),"in transcutol, 298.15 K",0.011
same,solubility (mole fraction),"in transcutol, 303.15 K",0.0131
same,solubility (mole fraction),"in transcutol, 308.15 K",0.0156
same,solubility (mole fraction),"in water, 288.15 K",1.32e-07
same,solubility (mole fraction),"in water, 293.15 K",1.56e-07
same,solubility (mole fraction),"in water, 298.15 K",1.83e-07
same,solubility (mole fraction),"in water, 303.15 K",2.14e-07
same,solubility (mole fraction),"in water, 308.15 K",2.49e-07
